Results published in PMC6694155, “PTPσ inhibitors promote hematopoietic stem cell regeneration” (Nature Communications, 2019).
Several values for one entry are separate records, joined by “and”; a condition that tells them apart may be missing. Identical values can stand only once.

Columns and labels:
PTPσ = molecular target: T1, PTPσ (Mus musculus, UniProt B0V2N1); assay: Substrate titration of PTPσ (Km, Vmax, mechanism of inhibition); format: biochemical
T1 sequence (B0V2N1 1326-1907): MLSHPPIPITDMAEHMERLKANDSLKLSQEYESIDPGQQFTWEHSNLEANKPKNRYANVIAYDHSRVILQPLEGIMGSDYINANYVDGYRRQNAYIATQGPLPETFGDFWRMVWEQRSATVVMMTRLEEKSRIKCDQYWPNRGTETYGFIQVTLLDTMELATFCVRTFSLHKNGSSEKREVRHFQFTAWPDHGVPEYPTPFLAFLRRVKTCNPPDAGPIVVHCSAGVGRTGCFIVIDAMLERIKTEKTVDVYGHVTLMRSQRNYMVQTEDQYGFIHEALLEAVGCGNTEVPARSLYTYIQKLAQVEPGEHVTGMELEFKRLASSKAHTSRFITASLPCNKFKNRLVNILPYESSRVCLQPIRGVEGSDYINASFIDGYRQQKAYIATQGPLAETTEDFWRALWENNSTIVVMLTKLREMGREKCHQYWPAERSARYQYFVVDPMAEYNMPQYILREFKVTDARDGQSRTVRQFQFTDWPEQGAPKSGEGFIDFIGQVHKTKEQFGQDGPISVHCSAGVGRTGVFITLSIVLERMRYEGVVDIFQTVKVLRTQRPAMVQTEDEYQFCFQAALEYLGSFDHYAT
Method: The two intracellular catalytic domains (D1 and D2) of Ptprs were cloned into a pET28a vector, overexpressed in Escherichia coli BL21 and purified. Enzymatic activity of PTPσ was assayed using a modified version of the Malachite Green Assay[66] and the Tyrosine Phosphatase Assay Kit (Promega Corporation). Unless stated otherwise, standard assays were carried out using 50 nM PTPσ protein in 1× Buffer (10 mM Tris, 5 mM MgCl2, 10 mM NaCl, 0.02% Tween) and Tyr Phosphopeptide as substrate (200 μM for Fig. 1b, c, 50–1200 μM in Fig. 1c). Purified catalytic domain 1 and domain 2 of PTPσ were pre-incubated with test compounds 3071, 5205, 5075, or control for 15 min in a 96-well plate before the addition of Tyr Phosphopeptide (DADE(pY)LIPQQG). For IC50 determination, rates normalized relative to uninhibited controls (dimethyl sulfoxide (DMSO)) were plotted against compound concentration and fitted using a four-parameter nonlinear regression curve fit ((y = [(A − D) (1 + {xC − 1}B) − 1] + D) (Prism 6.0, Graphpad Software). For mechanism studies and determination of the enyzme’s Km and Vmax, data were analyzed using a nonlinear regression fit according to the classical Michaelis–Menten kinetics model, Y = Vmax*X/(Km + X) (Prism 6.0, Graphpad Software).

[1] = molecular target: T2, LMPTP-B (Low Molecular Weight Protein Tyrosine phosphatase B) (Homo sapiens, UniProt P24666); assay: PhosphataseProfiler screen: LMPTP-B; format: biochemical; conditions: replicates
T2 construct: purchased Eurofins Pharma Discovery Services UK
Method: Compound DJ001 was evaluated in a PhosphataseProfiler™ screen at 10 μM and 1 μM (2.7 μg/mL and 0.27 μg/mL) concentrations at Eurofins Pharma Discovery Services UK (Study number UK022-0004033) against a panel of 21 Phosphatases. In each experiment, the respective reference antagonist/agonist was tested directly with DJ001 and the data were compared with historical values determined at Eurofins. DJ001 compound inhibition was calculated as percentage inhibition of the enzymatic activity compared with control.

BM KSL cells = assay: CFC assay from 300 cGy-irradiated BM KSL cells, 3 day culture; format: cell-based, mouse
Method: CFC assays (colony-forming unit-granulocyte monocyte), burst-forming unit-erythroid, and CFU-GEMM were performed using MethoCult GF M3434 (Stemcell Technologies)[6]. […] Recombinant mouse SCF, Flt3 ligand, and TPO were purchased from R&D Systems. For competitive repopulation assays, BM cells were isolated from donor 10–12-week-old female CD45.2^+ mice. Recipient 10-week-old female CD45.1^+ B6.SJL mice were irradiated with 950 cGy TBI using a Cs137 irradiator and donor BM cells were administered via tail vein injection along with a competing dose of 1 × 10^5 non-irradiated host BM cells. Multilineage donor hematopoietic cell engraftment was measured in the PB by flow cytometry.

human BM CD34+ cells = assay: Recovery of CD34+CD38− cells from 300 cGy-irradiated human BM CD34+ cells; format: cell-based; conditions: 36 h, 5 µg/mL DJ001
[2] = BM KSL cells, 300 cGy, 3 days in TSF media + DJ001

T2 sequence (P24666 1-158 isoform P24666-2, species assumed): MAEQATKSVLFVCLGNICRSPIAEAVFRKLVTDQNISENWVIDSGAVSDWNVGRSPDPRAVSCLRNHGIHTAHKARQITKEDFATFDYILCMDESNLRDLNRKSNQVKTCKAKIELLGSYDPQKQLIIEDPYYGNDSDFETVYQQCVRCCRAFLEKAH

For O=C(/C=C\Nc1cccc([N+](=O)[O-])c1)c1ccccc1 [DJ001, (Z)-3-((3-nitrophenyl)amino)-1-phenylprop-2-en-1-one], the “substrate titration source data, rate per replicate” value (PTPσ; 25M DJ001, Substrate 50 uM) was 9, the “substrate titration source data, rate per replicate” value (PTPσ; 25M DJ001, Substrate 50 uM, 25 µM DJ001) was 12.3 and the “substrate titration source data, rate per replicate” value (PTPσ; 25M DJ001, Substrate 100 uM) was 13.4. The “substrate titration source data, rate per replicate” value (PTPσ; 25M DJ001, Substrate 100 uM, 25 µM DJ001) was 16.2, the “substrate titration source data, rate per replicate” value (PTPσ; 25M DJ001, Substrate 200 uM) was 26.7 and the “substrate titration source data, rate per replicate” value (PTPσ; 25M DJ001, Substrate 200 uM, 25 µM DJ001) was 26. For the same molecule, the “substrate titration source data, rate per replicate” value (PTPσ; 25M DJ001, Substrate 400 uM) was 42.9, the “substrate titration source data, rate per replicate” value (PTPσ; 25M DJ001, Substrate 400 uM, 25 µM DJ001) was 40.9 and the “substrate titration source data, rate per replicate” value (PTPσ; 25M DJ001, Substrate 800 uM) was 54.8. For the same molecule, the “substrate titration source data, rate per replicate” value (PTPσ; 25M DJ001, Substrate 800 uM, 25 µM DJ001) was 50.4, the “substrate titration source data, rate per replicate” value (PTPσ; 25M DJ001, Substrate 1200 uM) was 57.8 and the “substrate titration source data, rate per replicate” value (PTPσ; 25M DJ001, Substrate 1200 uM, 25 µM DJ001) was 55.4. For the same molecule, the “substrate titration source data, rate per replicate” value (PTPσ; 50M DJ001, Substrate 50 uM, 50 µM DJ001) was 7.7 and 8, the “substrate titration source data, rate per replicate” value (PTPσ; 50M DJ001, Substrate 100 uM, 50 µM DJ001) was 9.1 and 9.9 and the “substrate titration source data, rate per replicate” value (PTPσ; 50M DJ001, Substrate 200 uM, 50 µM DJ001) was 14.1 and 15.3. For the same molecule, the “substrate titration source data, rate per replicate” value (PTPσ; 50M DJ001, Substrate 400 uM, 50 µM DJ001) was 23.2 and 23.4, the “substrate titration source data, rate per replicate” value (PTPσ; 50M DJ001, Substrate 800 uM, 50 µM DJ001) was 28.7 and 27 and the “substrate titration source data, rate per replicate” value (PTPσ; 50M DJ001, Substrate 1200 uM, 50 µM DJ001) was 34.7 and 35. For the same molecule, the “substrate titration source data, rate per replicate” value (PTPσ; 100M DJ001, Substrate 50 uM) was 7.7 and 7.4, the “substrate titration source data, rate per replicate” value (PTPσ; 100M DJ001, Substrate 100 uM) was 7.7 and the “substrate titration source data, rate per replicate” value (PTPσ; 100M DJ001, Substrate 200 uM) was 8.9. For the same molecule, the “substrate titration source data, rate per replicate” value (PTPσ; 100M DJ001, Substrate 400 uM) was 13.4 and 13.9, the “substrate titration source data, rate per replicate” value (PTPσ; 100M DJ001, Substrate 800 uM) was 17.3 and 16.7 and the “substrate titration source data, rate per replicate” value (PTPσ; 100M DJ001, Substrate 1200 uM) was 25.5 and 23.8. For the same molecule, the “mechanism of PTPσ inhibition” value (PTPσ; substrate titration, inhibits Vmax, constant Km) was “non-competitive inhibitor”, the “Supplementary Figure 1: LMPTP-B activity” value ([1]; 0.27 g/mL DJ001) was 96 and 90 and 99 and the “Supplementary Figure 1: LMPTP-B activity” value ([1]; 2.7 g/mL DJ001) was 99 and 100 and 91. For the same molecule, the “recovery of BM CFCs and CFU-GEMM colonies vs control” value (BM KSL cells; 300 cGy, 1 μg/mL DJ001, 3 days) was “increased recovery of BM CFCs”, the “BFU-E, numbers per replicate” value (BM KSL cells; [2]) was 2 (3×) and 4 (2×) and 3 (5×) and 1 (2×) and the “GEMM, numbers per replicate” value (BM KSL cells; [2]) was 5 (3×) and 3 (2×) and 4 (2×) and 6 (5×). The CFU-GEMM (BM KSL cells; Supplementary Figure 7g) was 7, the CFU-GEMM (BM KSL cells; Supplementary Figure 7d) was 7 and the “recovery of viable human BM CD34+CD38− cells following irradiation” value (human BM CD34+ cells) was “increased the recovery”.
